Experimental findings from patent US10377763B2, “Morphinan derivative and medical usage thereof” (UNIVERSITY OF TSUKUBA, priority 2015, dated 2019) are described below.

Read-outs that look alike come from different tables or passages of the source.

In one assay the target is human OX1R (Homo sapiens (Human), UniProt O43613). In words: Measurement of antagonistic activity against orexin receptors (intracellular calcium, CHOOX1R cells). It is filed as cell-based. The conditions noted are these: for antagonistic activity against human OX1 receptor (in words): summary of Table 6. The procedure:
(§1) The Chinese hamster ovary (CHO) cell lines CHOOX1R and CHOOX2R were established by modifying CHO cells to constantly express the NFAT-luciferase gene and either the human OX1R or human OX2R gene. Those cells were plated at 10,000 cells/well in 96-well multiplates with DMEM (manufactured by Sigma-Aldrich Co. LLC) supplemented with 5% FBS (manufactured by Thermo Scientific Inc.) and incubated at 37° C. and 5% CO2 for 48 hours. After removal of the medium, 100 μL of an assay buffer (20 mM HEPES (manufactured by Sigma-Aldrich Co. LLC), Hank's balanced salt solution (manufactured by Gibco), 0.1% BSA (manufactured by Sigma-Aldrich Co. LLC), 2.5 mM probenecid acid (manufactured by Wako Pure Chemical Industries, Ltd.), pH 7.4) containing 5 μM Fura-2AM (manufactured by Cayman Chemical Co.) was added to each well, and incubated at 37° C. and 5% CO2 for 60 minutes. After removal of the buffer containing Fura-2AM, 75 μL of the assay buffer was added to each well. Then, […] of the assay buffer containing a test compound at various concentrations and OX-A (manufactured by Peptide Institute, Inc.) was added to start the reaction. The change in intracellular calcium ion concentration induced by the reaction was evaluated by the ratio of fluorescent intensities, which were measured at a wavelength of 510 nm based on the two wavelength excitation approach using FDSS 7000 (manufactured by Hamamatsu Photonics K.K.) with fluorescence excitation at 340 nm and 380 nm. A concentration-response curve on the antagonistic activity was plotted from the values of maximal fluorescent intensity ratio determined when various concentrations of a test compound were added in the presence of […] of OX-A, where a value of maximal fluorescent intensity ratio determined by adding 300 pM of OX-A alone corresponds to 100% and a value of maximal fluorescent intensity ratio determined by adding the assay buffer alone corresponds to 0%. Based on the resulting non-linear regression curve, the 50% maximal inhibitory concentration (IC50) was calculated. Each test compound was dissolved in DMSO to a concentration of 10 mM (the final concentration of DMSO was 1%), and then diluted with the assay buffer to give a final concentration of 3.0×10^−10 M to 1.0×10^−5 M (a common ratio of 3), while OX-A was diluted to a final concentration of 300 pM. The experiment was performed in quadruplicate plates, and the results of the four independent measurements were averaged to give the value of each reaction, and then the IC50 of a sample was calculated. If the sample number was 2 or more, the averaged IC50 was used.
(Calcium assays in cells follow changes in intracellular calcium, usually with a dye or a luminescent sensor.)

The target in a further assay is human OX2R (Homo sapiens (Human), UniProt O43614). In words: Measurement of antagonistic activity against orexin receptors (intracellular calcium, CHOOX2R cells). The class given is cell-based. The procedure: as §1
Setting [1] is: CHOOX1R cells, 300 pM OX-A, Fura-2 calcium, read-out: OX1 (IC50).
The mark [2] stands for this setting: CHOOX2R cells, 300 pM OX-A, Fura-2 calcium, read-out: OX2 (IC50).

human OX1R, sequence (O43613 whole entry): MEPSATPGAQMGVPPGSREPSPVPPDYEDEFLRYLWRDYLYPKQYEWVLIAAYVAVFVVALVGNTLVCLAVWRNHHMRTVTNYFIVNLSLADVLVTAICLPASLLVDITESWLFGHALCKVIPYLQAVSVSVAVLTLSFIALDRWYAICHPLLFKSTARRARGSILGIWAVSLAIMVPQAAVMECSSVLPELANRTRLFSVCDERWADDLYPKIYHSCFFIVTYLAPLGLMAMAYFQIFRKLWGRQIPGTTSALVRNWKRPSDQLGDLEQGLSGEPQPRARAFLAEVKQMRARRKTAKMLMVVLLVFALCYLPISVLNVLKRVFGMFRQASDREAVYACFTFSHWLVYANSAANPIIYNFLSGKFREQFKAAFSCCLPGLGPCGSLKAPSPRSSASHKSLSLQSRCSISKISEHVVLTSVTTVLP
human OX2R, sequence (O43614 whole entry): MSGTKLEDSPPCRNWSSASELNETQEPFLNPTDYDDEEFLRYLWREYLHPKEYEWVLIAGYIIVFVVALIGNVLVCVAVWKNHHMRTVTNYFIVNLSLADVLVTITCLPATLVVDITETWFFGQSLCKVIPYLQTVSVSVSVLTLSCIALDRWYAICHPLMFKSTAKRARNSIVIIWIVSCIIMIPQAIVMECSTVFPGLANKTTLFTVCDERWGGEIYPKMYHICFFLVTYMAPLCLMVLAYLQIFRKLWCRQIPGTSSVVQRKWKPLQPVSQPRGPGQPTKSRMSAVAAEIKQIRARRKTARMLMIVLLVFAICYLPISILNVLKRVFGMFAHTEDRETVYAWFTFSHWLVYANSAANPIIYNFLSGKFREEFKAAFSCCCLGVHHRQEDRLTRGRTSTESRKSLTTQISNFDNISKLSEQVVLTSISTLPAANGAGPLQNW

As a reminder, the IC50 is the concentration needed to halve the response being measured. With `CN(C(=O)/C=C/c1ccoc1)[C@@H]1CC[C@@]2(O)[C@H]3Cc4ccc(O)c5c4[C@@]2(CCN3CC2CC2)[C@H]1O5.Cl` [Comparative Example 1, (E)-N-[(4R,4aS,7R,7aR,12bS)-3-(cyclopropylmethyl)-4a,9-dihydroxy-2,3,4,4a,5,6,7,7a-octahydro-1H-4,12-methanobenzofuro[3,2-e]isoquinolin-7-yl]-3-(furan-3-yl)-N-methylacrylamide hydrochloride, reference compound], the figures for the IC50 on human OX1R (setting [1]) and on human OX2R (setting [2]) were 1650 nM and greater than 10000 nM, respectively. For the same compound, the “antagonistic activity against human OX1 receptor (in words)” value (“antagonistic activity” below) at human OX1R is “very weak antagonistic activity”.

As to `COc1ccc2c3c1O[C@H]1[C@H](N(C)Cc4ccccc4)CC[C@@]4(O)[C@@H](C2)N(C(=O)OC(C)(C)C)CC[C@]314` [Comparative Example 2, tert-butyl(4R,4aS,7R,7aR,12bS)-7-[benzyl(methyl)amino]-4a-hydroxy-9-methoxy-1,2,4,4a,5,6,7,7a-octahydro-3H-4,12-methanobenzofuro[3,2-e]isoquinolin-3-carboxylate, reference compound], the results for the IC50 on human OX1R (setting [1]) and on human OX2R (setting [2]) were 2850 nM and greater than 10000 nM, respectively. Also, the “antagonistic activity” value at human OX1R was “very weak antagonistic activity”.

Regarding `COc1ccc2c3c1O[C@H]1[C@H](N(C)C(=O)/C=C/c4ccoc4)CC[C@@]4(O)[C@@H](C2)N(S(=O)(=O)c2ccccc2)CC[C@]314` [Example 1, (E)-3-(furan-3-yl)-N-[(4R,4aS,7R,7aR,12bS)-4a-hydroxy-9-methoxy-3-(phenylsulfonyl)-2,3,4,4a,5,6,7,7a-octahydro-1H-4,12-methanobenzofuro[3,2-e]isoquinolin-7-yl]-N-methylacrylamide], the IC50 at human OX1R was 82.8 nM; at human OX2R, greater than 10000 nM. Moreover, the “antagonistic activity” value on human OX1R was “potent and selective antagonistic activity”.

Take `COc1ccc2c3c1O[C@H]1[C@H](N(C)C(=O)/C=C/c4ccoc4)CC[C@@]4(O)[C@@H](C2)N(S(=O)(=O)c2ccccc2C)CC[C@]314` [Example 2]: the results for the IC50 on human OX1R (setting [1]) and at human OX2R (setting [2]) were 30 nM and greater than 10000 nM, respectively. Further, the “antagonistic activity” value at human OX1R was “potent and selective antagonistic activity”.

Take `COc1ccc2c3c1O[C@H]1[C@H](N(C)C(=O)/C=C/c4ccoc4)CC[C@@]4(O)[C@@H](C2)N(S(=O)(=O)c2cccc(C)c2)CC[C@]314` [Example 3]: the IC50 on human OX1R (setting [1]) was 24 nM; at human OX2R (setting [2]) it was greater than 10000 nM. Also, on human OX1R, the “antagonistic activity” value was “potent and selective antagonistic activity”.

For `COc1ccc2c3c1O[C@H]1[C@H](N(C)C(=O)/C=C/c4ccoc4)CC[C@@]4(O)[C@@H](C2)N(S(=O)(=O)c2ccc(C)cc2)CC[C@]314` [Example 4], the IC50 was 162 nM at human OX1R (setting [1]) and greater than 10000 nM at human OX2R (setting [2]). In addition, at human OX1R, the “antagonistic activity” value was “potent and selective antagonistic activity”.

On to `COc1ccc2c3c1O[C@H]1[C@H](N(C)C(=O)/C=C/c4ccoc4)CC[C@@]4(O)[C@@H](C2)N(S(=O)(=O)c2ccccc2C(F)(F)F)CC[C@]314` [Example 5], for which the figures for the IC50 at human OX1R (setting [1]) and on human OX2R (setting [2]) were 419 nM and greater than 10000 nM, respectively. Moreover, the “antagonistic activity” value on human OX1R was “potent and selective antagonistic activity”.

`COc1ccc2c3c1O[C@H]1[C@H](N(C)C(=O)/C=C/c4ccoc4)CC[C@@]4(O)[C@@H](C2)N(S(=O)(=O)c2ccccc2[N+](=O)[O-])CC[C@]314` [Example 8]: the IC50 is 144 nM at human OX1R (setting [1]) and greater than 10000 nM at human OX2R (setting [2]). In addition, the “antagonistic activity” value at human OX1R is “potent and selective antagonistic activity”.

As to `COc1ccc2c3c1O[C@H]1[C@H](N(C)C(=O)/C=C/c4ccoc4)CC[C@@]4(O)[C@@H](C2)N(S(=O)(=O)c2ccccc2C#N)CC[C@]314` [Example 11], the IC50 is 49.1 nM at human OX1R (setting [1]) and greater than 10000 nM on human OX2R (setting [2]). Also, the “antagonistic activity” value on human OX1R is “potent and selective antagonistic activity”.

As to `COc1ccc2c3c1O[C@H]1[C@H](N(C)C(=O)/C=C/c4ccoc4)CC[C@@]4(O)[C@@H](C2)N(S(=O)(=O)c2cccc(F)c2)CC[C@]314` [Example 15], the figures for the IC50 at human OX1R (setting [1]) and at human OX2R (setting [2]) were 112 nM and greater than 10000 nM, respectively. The “antagonistic activity” value at human OX1R is “potent and selective antagonistic activity”.

As to `COc1ccc2c3c1O[C@H]1[C@H](N(C)C(=O)/C=C/c4ccoc4)CC[C@@]4(O)[C@@H](C2)N(S(=O)(=O)c2cccc(Cl)c2)CC[C@]314` [Example 18], the IC50 on human OX1R (setting [1]) is 195 nM; on human OX2R (setting [2]), greater than 10000 nM. On human OX1R, the “antagonistic activity” value was “potent and selective antagonistic activity”.

On to `COc1ccc2c3c1O[C@H]1[C@H](N(C)C(=O)/C=C/c4ccoc4)CC[C@@]4(O)[C@@H](C2)N(S(=O)(=O)c2ccccc2Br)CC[C@]314` [Example 20], for which the IC50 on human OX1R (setting [1]) is 56.2 nM; on human OX2R (setting [2]) it was greater than 10000 nM. In addition, on human OX1R, the “antagonistic activity” value is “potent and selective antagonistic activity”.

For `COc1ccc2c3c1O[C@H]1[C@H](N(C)C(=O)/C=C/c4ccoc4)CC[C@@]4(O)[C@@H](C2)N(S(=O)(=O)c2cccc(Br)c2)CC[C@]314` [Example 21], the IC50 was 200 nM on human OX1R (setting [1]) and greater than 10000 nM at human OX2R (setting [2]). Besides, the “antagonistic activity” value at human OX1R was “potent and selective antagonistic activity”.

Regarding `COc1ccc2c3c1O[C@H]1[C@H](N(C)C(=O)/C=C/c4ccoc4)CC[C@@]4(O)[C@@H](C2)N(S(=O)(=O)c2c(C)cc(C)cc2C)CC[C@]314` [Example 23], the IC50 at human OX1R (setting [1]) was 121 nM; at human OX2R (setting [2]), greater than 10000 nM. Also, at human OX1R, the “antagonistic activity” value is “potent and selective antagonistic activity”.

For the compound `COc1ccc2c3c1O[C@H]1[C@H](N(C)C(=O)/C=C/c4ccoc4)CC[C@@]4(O)[C@@H](C2)N(S(=O)(=O)c2cccc5cccnc25)CC[C@]314` [Example 25], the IC50 was 198 nM at human OX1R (setting [1]) and greater than 10000 nM at human OX2R (setting [2]). Besides, the “antagonistic activity” value at human OX1R is “potent and selective antagonistic activity”.

Consider `CCCCS(=O)(=O)N1CC[C@]23c4c5ccc(OC)c4O[C@H]2[C@H](N(C)C(=O)/C=C/c2ccoc2)CC[C@@]3(O)[C@H]1C5` [Example 27], for which the IC50 at human OX1R (setting [1]) is 87.8 nM; at human OX2R (setting [2]), greater than 10000 nM. Moreover, the “antagonistic activity” value on human OX1R is “potent and selective antagonistic activity”.

Take `COc1ccc2c3c1O[C@H]1[C@H](N(C)C(=O)/C=C/c4ccoc4)CC[C@@]4(O)[C@@H](C2)N(S(=O)(=O)C2CC2)CC[C@]314` [Example 28]: the IC50 on human OX1R (setting [1]) was 101 nM; on human OX2R (setting [2]), greater than 10000 nM. For the same compound, at human OX1R, the “antagonistic activity” value was “potent and selective antagonistic activity”.

As to `COc1ccc2c3c1O[C@H]1[C@H](N(C)C(=O)/C=C/c4ccoc4)CC[C@@]4(O)[C@@H](C2)N(S(=O)(=O)c2ccc(N(C)C)cc2)CC[C@]314.Cl` [Example 32], the half-inhibitory concentration (IC50) is 11.7 nM at human OX1R (setting [1]) and greater than 10000 nM at human OX2R (setting [2]). Also, the “antagonistic activity” value on human OX1R is “potent and selective antagonistic activity”.

For `COc1ccc2c3c1O[C@H]1[C@H](N(C)C(=O)/C=C/c4ccoc4)CC[C@@]4(O)[C@@H](C2)N(C(=O)C2CC2)CC[C@]314` [Example 34], the IC50 at human OX1R (setting [1]) was 259 nM; on human OX2R (setting [2]) it was greater than 10000 nM. The “antagonistic activity” value at human OX1R was “potent and selective antagonistic activity”.

For the compound `COc1ccc2c3c1O[C@H]1[C@H](N(C)C(=O)/C=C/c4ccoc4)CC[C@@]4(O)[C@@H](C2)N(C(=O)c2ccc(C)cc2)CC[C@]314` [Example 35], the IC50 at human OX1R (setting [1]) was 571 nM; at human OX2R (setting [2]) it was greater than 10000 nM. In addition, at human OX1R, the “antagonistic activity” value was “potent and selective antagonistic activity”.

Turning to `COc1ccc2c3c1O[C@H]1[C@H](N(C)C(=O)C=Cc4ccccc4)CC[C@@]4(O)[C@@H](C2)N(S(=O)(=O)c2ccccc2)CC[C@]314` [Example 38, N-[(4R,4aS,7R,7aR,12bS)-4a-hydroxy-9-methoxy-3-(phenylsulfonyl)-2,3,4,4a,5,6,7,7a-octahydro-1H-4,12-methanobenzofuro[3,2-e]isoquinolin-7-yl]-N-methylcinnamide], the figures for the IC50 at human OX1R (setting [1]) and at human OX2R (setting [2]) were 128 nM and greater than 10000 nM, respectively. Further, the “antagonistic activity” value on human OX1R was “potent and selective antagonistic activity”.
